Read-outs that look alike come from different tables or passages of the source. Numbered stars: 1 amine (or outer) side, 2 acyl side, 3 side chain; on linkers, the order of the positions; unused ones are H or OH. Square brackets hold non-standard residues; d marks the D form. Peptide text beside a SMILES is read from it. NMeAla(5-Cl-benzothien-3-yl) = CN[C@@H](Cc1csc2ccc(Cl)cc12)C(=O)O; Ala(1-cyclohexenyl) = N[C@@H](CC1=CCCCC1)C(=O)O; Butanoyl(2R-oxy,4-CN) = N#CCC[C@@H](O)C(=O)O; X22 = CCCC[C@@H](C)C[C@H](N[*:1])C(=O)[*:2]; X23 = CN([C@@H](CC1=CCCCC1)C(=O)[*:2])[*:1]; Abu(4,4,4-F3) = N[C@@H](CC(F)(F)F)C(=O)O; NMeCha = CN[C@@H](CC1CCCCC1)C(=O)O; NMeF = CN[C@@H](Cc1ccccc1)C(=O)O; Cha = N[C@@H](CC1CCCCC1)C(=O)O; NMeL = CN[C@@H](CC(C)C)C(=O)O; hLeu = CC(C)CC[C@H](N)C(=O)O; NMeA = CN[C@@H](C)C(=O)O; Nle = CCCC[C@H](N)C(=O)O; Nva = CCC[C@H](N)C(=O)O; dLac = C[C@@H](O)C(=O)O; Abu = CC[C@H](N)C(=O)O
What was measured:
Type in all cases: cell-based
[1] = tested on: NCI-H929 multiple myeloma cell line; test: H929 assay (cell viability, Celltiter-Glo); details: Homo sapiens, NCI-H929; 48 hours, cell viability; read-out: H929 EC50
Procedure: The human multiple myeloma cell line NCI-H929 was cultured in Advanced RPMI 1640 media (Gibco@) supplemented with 6% fetal bovine serum, 2 mM Glutamine, and 1× Penicillin/Streptomycin. On the day of assay, cells were resuspended in RPMI 1640 media supplemented with 10% fetal bovine serum, 2 mM Glutamine, and 1× Penicillin/Streptmycin and plated in 384-well tissue culture plates and treated with compound dilutions in DMSO/media. Plates were incubated at 37° C., 5% CO2 for 48 hours. After 48 hours, Celltiter-Glo@ (Promega) was added to each well and luciferase signal was quantified using Tecan Infinite M1000 Pro for cell viability determination.

[2] = tested on: Prl-ss+10aa/Gaussia Luciferase; test: Prl-ss-Gluc assay (constitutively active or 24 hr Dox inducible); details: Flp-In 293 T-REx cells, 24 hours; read-out: Prl IC50
Excerpt: Constitutively Active Prl-ss-Gluc Assay
Flp-In 293 T-REx™ cells were transfected with pcDNA™5/FRT plasmid inserted with cDNA encoding Gaussia Luciferase fused to the 3′ end of cDNA encoding Prl signal sequence plus 10 amino acids (N-[…]-C) (SEQ ID NO:4). Transfected cells were selected for resistance to the selectable markers Hygromycin and Blasticidin to create a stable cell line that constitutively expressed the Prlss+10aa/Gaussia Luciferase fusion protein. The day before assay, cells were trypsinized and plated in 384-well tissue culture plates. The next day, culture media was removed from the wells and replaced with fresh media. Compound dilutions in DMSO/media were added to the wells and incubated at 37° C., 5% CO2.
24 hr Dox Inducible Prl-ss-Gluc Assay
(§1) Flp-In 293 T-REx™ cells were transfected with pcDNA™5/FRT/TO plasmid inserted with cDNA encoding Gaussia Luciferase fused to the 3′ end of cDNA encoding Prl signal sequence plus 10 amino acids (N-[…]-C) (SEQ ID NO:5). Transfected cells were selected for resistance to the selectable markers Hygromycin and Blasticidin to create a stable cell line that contained the Prl-ss+10aa/Gaussia Luciferase cDNA insert whose expression was regulated under the T-REx™ system. The day before assay, cells were trypsinized and plated in 384-well tissue culture plates. The next day, compound dilutions in DMSO/media containing doxycycline were added to the wells and incubated at 37° C., 5% CO2.

[3] = tested on: U266B1 multiple myeloma cell line; test: U266 assay (cell viability, Celltiter-Glo); details: Homo sapiens, U-266; 48 hours, cell viability
Procedure: Cells were plated in 384-well tissue culture plates and treated with compound dilutions in DMSO/media. Plates were incubated at 37° C., 5% CO2 for 48 hours. After 48 hours, Celltiter-Glo@ (Promega) was added to each well and luciferase signal was quantified using Tecan Infinite M1000 Pro for cell viability determination.

HER3ss-Gluc = test: HER3ss assay; details: read-out: HER3 ss IC50
Procedure: The mature domain of secreted luciferase from Gaussia princeps (GLuc) was cloned into pcDNA5/FRT/TO. The signal sequence plus four amino acids of the mature domain from HER3 ([…]) (SEQ ID NO:8) were cloned upstream of GLuc mature domain and used in transient transfection experiment. HEK-293T T-rex cells were cultured in Dulbecco's modified Eagle's medium with 10% FBS at 5% CO2. Cells were plated 1×10e6 cells per well in a 6-well plate and incubated for 6 h. Cells were transiently transfected with HER3ss-Gluc using Lipofectamine 2000 (Invitrogen). After overnight incubation, transfected cells were replated in a clear-bottomed, black 96-well plate at a density of 20,000 cells per well. Six hours after plating, the cells were treated with doxycycline (1 μg/ml) and increasing concentrations of the indicated compounds for 24 h. Secreted luciferase in the conditioned media was quantified by luminescence using the BioLux Gaussia Luciferase Assay Kit (New England Biolabs, Ipswich, Mass., USA) and a SpectraMax M5 plate reader (Molecular Devices).

[4] = tested on: TNFα-FL/Gaussia Luciferase; test: Dox induced TNFα-FL-Gluc assay; details: read-out: TNFa FL Gluc IC50
Excerpt: Dox Induced TNFα-FL-Gluc Assay
Flp-In 293 T-REx™ cells were transfected with pcDNA™5/FRT/TO plasmid inserted with cDNA encoding Gaussia Luciferase fused to the 3′ end of cDNA encoding full length TNFα (amino acids 1-233). Transfected cells were selected for resistance to the selectable markers Hygromycin and Blasticidin to create a stable cell line that contained the TNFα-FL/Gaussia Luciferase cDNA insert whose expression was regulated under the T-REx™ system. The day before assay, cells were trypsinized and plated in 384-well tissue culture plates. The next day, compound dilutions in DMSO/media containing doxycycline were added to the wells and incubated at 37° C., 5% CO2.

[5] = tested on: PD1-ss+10aa/Gaussia Luciferase; test: Dox induced PD1-ss-Gluc assay; details: read-out: PD1ss Gluc IC50
Excerpt: Dox Induced PD1-ss-Gluc Assay
as §1, with “PD1” for “Prl”, “NO:3).” for “NO:5).”, “PD1-ss+10aa/Gaussia” for “Prl-ss+10aa/Gaussia”

[6] = Flp-In 293 T-REx cells, doxycycline, 24 hours

Compound | EC50 [1] | IC50 [2] | IC50 (HER3ss-Gluc; HEK-293T T-rex cells, transient transfection, doxycycline, 24 h) | IC50 [4, 6] | IC50 [5, 6] | EC50 [3] | IC50 (HER3ss-Gluc; I.A.) | IC50 ([4]; I.A.) | IC50 ([5]; I.A.)
CC(C)C[C@@H]1NC(=O)[C@H](Cc2csc3ccc(Cl)cc23)N(C)C(=O)[C@H](CC(C)C)NC(=O)[C@H](CC2=CCCCC2)N(C)C(=O)[C@H](CC(F)(F)F)NC(=O)[C@@H](CCC#N)OC(=O)[C@H](C)N(C)C1=O [C-80] (cyclo(L[NMeA][Butanoyl(2R-oxy,4-CN)][Abu(4,4,4-F3)][X23]L[NMeAla(5-Cl-benzothien-3-yl)])) | 3440 nM | 23700 nM |  |  |  | 5680 nM | > 25000 nM | > 25000 nM | > 25000 nM
CCCC[C@@H](C)C[C@@H]1NC(=O)[C@@H](CCC#N)OC(=O)[C@H](C)N(C)C(=O)[C@H](CC(F)(F)F)NC(=O)[C@H](Cc2ccccc2)N(C)C(=O)[C@H](CC(C)C)NC(=O)[C@H](CC(C)C)N(C)C1=O [C-26] (cyclo(L[NMeF][Abu(4,4,4-F3)][NMeA][Butanoyl(2R-oxy,4-CN)][X22][NMeL])) | 1010 nM |  |  | 92 nM | 59 nM |  |  |  | 
CCCC[C@@H](C)C[C@@H]1NC(=O)[C@H](CC2CCCCC2)N(C)C(=O)[C@H](CC(C)C)NC(=O)[C@H](CC(C)C)N(C)C(=O)[C@H](CC(C)C)NC(=O)[C@@H](CCC#N)OC(=O)[C@H](C)N(C)C1=O [C-21] (cyclo(L[NMeCha][X22][NMeA][Butanoyl(2R-oxy,4-CN)]L[NMeL])) | 3400 nM |  |  | 716 nM | 212 nM |  |  |  | 
CCCC[C@@H](C)C[C@@H]1NC(=O)[C@H](CC2CCCCC2)N(C)C(=O)[C@H](CC(C)C)NC(=O)[C@H](CC(C)C)N(C)C(=O)[C@H](C(C)C)NC(=O)[C@@H](CCC#N)OC(=O)[C@H](C)N(C)C1=O [C-20] (cyclo(L[NMeCha][X22][NMeA][Butanoyl(2R-oxy,4-CN)]V[NMeL])) | 5300 nM |  |  | 1680 nM | 432 nM |  |  |  | 
CCCC[C@@H](C)C[C@@H]1NC(=O)[C@H](Cc2ccccc2)N(C)C(=O)[C@H](CC)NC(=O)[C@H](CC(C)C)N(C)C(=O)[C@H](C[C@H](C)CCCC)NC(=O)[C@@H](C)OC(=O)[C@H](C)N(C)C1=O [C-05] (cyclo([Abu][NMeF][X22][NMeA][dLac][X22][NMeL])) | 1190 nM |  |  | 115 nM | 75 nM |  |  |  | 
CCCC[C@@H](C)C[C@@H]1NC(=O)[C@H](CC2CCCCC2)N(C)C(=O)[C@H](CC(C)C)NC(=O)[C@H](CC(C)C)N(C)C(=O)[C@H](C[C@H](C)CCCC)NC(=O)[C@@H](CCC#N)OC(=O)[C@H](C)N(C)C1=O [C-18] (cyclo(L[NMeCha][X22][NMeA][Butanoyl(2R-oxy,4-CN)][X22][NMeL])) | 429 nM |  |  | 84 nM | 37 nM |  |  |  | 

More lines, main results first:

EC50 [1] | IC50 [2] | IC50 (HER3ss-Gluc; HEK-293T T-rex cells, transient transfection, doxycycline, 24 h) | IC50 [4, 6] | IC50 [5, 6] | Compound | EC50 [3] | IC50 (HER3ss-Gluc; I.A.) | IC50 ([4]; I.A.) | IC50 ([5]; I.A.)
4090 nM |  | 9 nM | 754 nM | 397 nM | CC(C)C[C@@H]1NC(=O)[C@H](Cc2csc3ccc(Cl)cc23)N(C)C(=O)[C@H](CC(C)C)NC(=O)[C@H](CC(C)C)N(C)C(=O)[C@H](CC(F)(F)F)NC(=O)[C@@H](CCC#N)OC(=O)[C@H](C)N(C)C1=O [C-67] (cyclo(L[NMeA][Butanoyl(2R-oxy,4-CN)][Abu(4,4,4-F3)][NMeL]L[NMeAla(5-Cl-benzothien-3-yl)])) |  |  |  | 
4910 nM | 2500 nM |  | 911 nM | 248 nM | CCCC[C@@H](C)C[C@@H]1NC(=O)[C@H](CC2CCCCC2)N(C)C(=O)[C@H](CC(C)C)NC(=O)[C@H](CC(C)C)N(C)C(=O)[C@H](CC2CCCCC2)NC(=O)[C@@H](CCC#N)OC(=O)[C@H](C)N(C)C1=O [C-45] (cyclo([Cha][NMeL]L[NMeCha][X22][NMeA][Butanoyl(2R-oxy,4-CN)])) |  |  |  | 
5860 nM |  |  | 1560 nM | 495 nM | CCCC[C@@H](C)C[C@@H]1NC(=O)[C@H](CC2CCCCC2)N(C)C(=O)[C@H](CC(C)C)NC(=O)[C@H](CC(C)C)N(C)C(=O)[C@H](CCCC)NC(=O)[C@@H](CCC#N)OC(=O)[C@H](C)N(C)C1=O [C-53] (cyclo(L[NMeCha][X22][NMeA][Butanoyl(2R-oxy,4-CN)][Nle][NMeL])) |  |  |  | 
593 nM | 1530 nM |  | 211 nM | 67 nM | CCCC[C@@H](C)C[C@@H]1NC(=O)[C@H](CC2CCCCC2)N(C)C(=O)[C@H](CC)NC(=O)[C@H](CC(C)C)N(C)C(=O)[C@H](C[C@H](C)CCCC)NC(=O)[C@@H](CCC#N)OC(=O)[C@H](C)N(C)C1=O [C-43] (cyclo([Abu][NMeCha][X22][NMeA][Butanoyl(2R-oxy,4-CN)][X22][NMeL])) |  |  |  | 
376 nM | 740 nM |  | 109 nM | 37 nM | CCCC[C@@H](C)C[C@@H]1NC(=O)[C@H](CC2CCCCC2)N(C)C(=O)[C@H](CCC)NC(=O)[C@H](CC(C)C)N(C)C(=O)[C@H](C[C@H](C)CCCC)NC(=O)[C@@H](CCC#N)OC(=O)[C@H](C)N(C)C1=O [C-44] (cyclo([NMeA][Butanoyl(2R-oxy,4-CN)][X22][NMeL][Nva][NMeCha][X22])) |  |  |  | 
1650 nM |  |  | 238 nM | 94 nM | CCCC[C@@H](C)C[C@@H]1NC(=O)[C@H](CC2CCCCC2)N(C)C(=O)[C@H](CC(C)C)NC(=O)[C@H](CC(C)C)N(C)C(=O)[C@H](CC2=CCCCC2)NC(=O)[C@@H](CCC#N)OC(=O)[C@H](C)N(C)C1=O [C-56] (cyclo(L[NMeCha][X22][NMeA][Butanoyl(2R-oxy,4-CN)][Ala(1-cyclohexenyl)][NMeL])) |  |  |  | 
4730 nM |  |  | 1120 nM | 335 nM | CCCC[C@@H](C)C[C@@H]1NC(=O)[C@H](CC2CCCCC2)N(C)C(=O)[C@H](CC(C)C)NC(=O)[C@H](CC(C)C)N(C)C(=O)[C@H](CCC(C)C)NC(=O)[C@@H](CCC#N)OC(=O)[C@H](C)N(C)C1=O [C-60] (cyclo(L[NMeCha][X22][NMeA][Butanoyl(2R-oxy,4-CN)][hLeu][NMeL])) |  |  |  | 

Reference: patent US11339193B2, “CDP protein secretion inhibitors” (KEZAR LIFE SCIENCES, priority 2018, dated 2022)
